The record followed here is the NIST ThermoML archive (doi:10.1016/j.jct.2006.05.008).

For this data set the following is noted: Adiabatic calorimetry.

Numbers after ± are expanded uncertainties.

For the compound `CCC[n+]1ccn(C)c1.[Br-]` [1-methyl-3-propylimidazolium bromide], the Triple point temperature (Crystal) is recorded as 314.7 ± 0.5 K and the Triple point temperature (Metastable crystal) stood at 310.4 ± 0.5 K. Besides, the Glass transition temperature (Glass) was -64 ± 3 °C.

For `CCn1cc[n+](C)c1.[Br-]` [1-ethyl-3-methylimidazolium bromide], the Triple point temperature (Crystal) turned out to be 349.91 ± 0.2 K.

For `CCCCn1cc[n+](C)c1.[Br-]` [1-butyl-3-methylimidazolium bromide], the Triple point temperature (Crystal) is 351.35 ± 0.2 K.
